Laboratory results from patent US20260139017A1, “COMPOSITIONS AND METHODS USING REELIN IN ALZHEIMER'S DISEASE” (The General Hospital Corporation, priority 2022, published 2026).

Key:
[1] = Heparin HPLC, peak retention time in KCl elution; format: binding; conditions: isocratic 1M KCl elution, long and short peptides
Method: […] 50 μl of 0.3 μg/μL uncleaved or cleaved WT Reelin peptide was used at 0.3 ml/min in 0.15MKCl, 10 mM PBS. 0-13.5 min: 0.15M KCl to load sample, 13.5-14.5 min: ramp to 0.5M KCl, 14.5-24.5 min: 0.5-1M KCl gradient (ramp), 24.5-45 min: 1M KCl (isocratic elution), 45-55 min: 1M KCl at 0.6 ml/min (wash), 55.0-56.0 min: ramp to 0.15M KCl at 0.3 ml/min, 56.0-59.0 min: 0.15M KCl (reset column). Fluorescence Intensities were measured at an excitation wavelength of 260 nm and emission wavelength of 290 nm, based on fluorescence properties of aromatic amino acids. To assess fluorescence properties of peptides, 15 ul of ˜0.6 ug/mL of peptide was diluted in 500 μL of 0.15MKCl, 10 mM PBS, and peak excitation and emission of peptides was calculated from the 2D graphical data.
The column chromatography method was adapted from previous research from the laboratory (2). Based on the column chromatography data, the initial protocol used a NaCl gradient from 0-1 M and a 5M salt wash to reset the HPLC column. However, the high salt gradient was corrosive to the HPLC machine parts. Therefore, KCl was considered because the […]. A lower molar concentration of a buffer with KCl could be used to disrupt heparin—Reelin CTR interactions compared to NaCl to help keep the HPLC pumps free of residual salts and potential corrosion. Since a lower concentration of salt was used, the amount of time needed at an […] hold of 1M KCl was extended until the peptide signal could not be detected before the column was equilibrated for the next sample.

[2] = Isothermal titration calorimetry (ITC) of CTR-RELN with heparin; format: binding; conditions: titrated with 5 μM heparin, vs WT
[3] = molecular target: T1, NRP1 (Homo sapiens, UniProt O14786); assay: Bio-layer interferometry (BLI) of CTR-RELN-NRP-1 interactions; format: binding; conditions: Fc-fusion peptides
T1 construct: purchased R&D 3870-N1-025
T1 sequence (O14786 22-644 isoform O14786-2 limits assumed): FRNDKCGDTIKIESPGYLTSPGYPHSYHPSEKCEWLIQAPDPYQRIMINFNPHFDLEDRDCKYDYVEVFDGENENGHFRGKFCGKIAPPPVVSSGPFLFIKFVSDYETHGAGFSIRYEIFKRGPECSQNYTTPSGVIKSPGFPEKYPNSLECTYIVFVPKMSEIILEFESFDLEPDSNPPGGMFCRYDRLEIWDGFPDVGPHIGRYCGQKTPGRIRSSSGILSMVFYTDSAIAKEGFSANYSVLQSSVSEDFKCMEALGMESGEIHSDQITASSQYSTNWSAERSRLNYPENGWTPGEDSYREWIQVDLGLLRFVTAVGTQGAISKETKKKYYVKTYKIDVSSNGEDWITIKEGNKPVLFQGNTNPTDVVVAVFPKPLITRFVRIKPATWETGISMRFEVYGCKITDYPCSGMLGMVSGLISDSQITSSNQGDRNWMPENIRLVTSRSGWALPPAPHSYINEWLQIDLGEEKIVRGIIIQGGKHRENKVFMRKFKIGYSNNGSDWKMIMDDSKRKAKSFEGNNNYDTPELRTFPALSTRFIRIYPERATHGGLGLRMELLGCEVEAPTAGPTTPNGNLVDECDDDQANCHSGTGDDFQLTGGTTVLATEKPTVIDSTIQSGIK
Method: (§1) Bio-layer interferometry (BLI) was additionally used to assess NRP1-protein kinetics at 30° C. and 1000 rpm agitation. 1 mg/mL NRP1 (R&D 3870-N1-025) was biotinylated at a 1:2 molar ratio, desalted, and immobilized on the SA biosensor tip (Pall ForteBio) surface. This was followed by 1) 180 seconds baseline buffer diluent, 2) loading of the ligand (NRP1), 3) 180 seconds baseline buffer diluent, 4) 240 seconds association (analyte), and 5) 300 seconds disassociation in assay buffer. Assay buffer: SD Buffer (pH7.4 PBS, 0.05% tween20, 0.01% BSA).
The experimental data were fit with the 1:1 binding model and analyzed with global fitting using Octet Data Analysis software to calculate KD.
as §1, with “was” for “was additionally”, “agitation using previously published methods.” for “agitation.”

[4] = molecular target: T2, Aβ42 (Homo sapiens, UniProt P05067); assay: Thioflavin T (ThT) Aβ aggregation assay; format: biochemical; conditions: Aβ42 55 μM, 10 μM peptide, vs Aβ alone
T2 construct: SensoLyte ThT O-Amyloid (1-42) Aggregation kit
T2 sequence (P05067 672-713 limits assumed): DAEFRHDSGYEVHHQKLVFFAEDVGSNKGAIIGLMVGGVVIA
Method: Therefore, the ThT assay can be used to quantify AB aggregation using previously developed methods (40).
We incubated CTR-RELN with Aβ and monitored aggregation using a ThioflavinT fluorescence assay normalized to the maximum ThT emission of Aβ only. We also assayed Aβ in the presence of morin, a known inhibitor (41), as a […]. Long and short WT and H3447R RELN CTR peptides were included to better understand the potential role of the H3447R mutation in amyloid pathology (FIGS. 14 and 15. Negative controls included long and short RELN CTR peptides with neutrally charged AAs (histidines) in place of basic AAs in the alpha- and beta-GAG binding sites.
A Thioflavin T (ThT) assay was also performed using synthetic Reelin peptides to assess the differential effects of these proteins on Aβ42 aggregation in vitro using Thioflavin T (SensoLyte ThT O-Amyloid (1-42) Aggregation kit, catalog no. ΔS-72214). Aβ42 was added to a final concentration of 55 μM in solutions of 10 μM of Reelin peptide variants in a transparent, no-binding 96-well plate. Samples were then mixed with 2 mM Thioflavin T dye and fluorescence was read at excitation wavelength/emission wavelength (Ex/Em)=440/484 nm at intermittent time intervals over 2 h. The plate was kept at 37° C. with 15 s shaking between reads. […] In general, it appears that the RELN Cterm domain is highly unstructured. […] If the mini-RELN includes the C-term domain only without a receptor binding domain then the protection will not involve signaling, but will still involve direct interactions with tau. If the mini-RELN includes the C-term domain and the receptor binding domain, it will have at least two protective mechanisms, namely RELN signaling and direct interactions with tau.

RKQNYMMNFSRQHGLRRFYNRRRRSLRRYP [CTR-RELN H3447R]
peak retention time on heparin HPLC ([1]; listed as H3447R): increased later peak retention times | peak retention time on heparin HPLC ([1]; listed as H3447R Reelin): significantly later peak retention time | peak retention time on heparin HPLC ([1]; listed as RELN H3447R): delayed peak times | thermodynamics of heparin interaction [2]: enhanced interactions | affinity for NRP1 relative to WT [3]: 10 fold | Aβ aggregation (ThT fluorescence) ([4]; listed as COLBOS variant): enhanced this effect | Aβ aggregation (ThT fluorescence) ([4]; listed as H3447R): did not significantly affect Aβ aggregation compared to WT | Aβ aggregation (ThT fluorescence) ([4]; listed as RELN H3447R): similarly effective at inhibiting ThT aggregation as WT
